Results: patent US12116343B2, “Inhibitors of APOL1 and methods of using same” (Vertex Pharmaceuticals Incorporated, priority 2020, dated 2024)

What follows are compounds tested against T1, G1 APOL1 (Homo sapiens, UniProt O14791, I384M/S342G) (assay: Acute APOL1 Thallium Assay with inducible stable clones of HEK 293 cells). Details: HEK 293 T-Rex cells expressing G1 APOL1; read-out: Thallium Assay (IC50).
T1 construct: expressed in transfected cells
T1 sequence (O14791 28-398 S342G/I384M): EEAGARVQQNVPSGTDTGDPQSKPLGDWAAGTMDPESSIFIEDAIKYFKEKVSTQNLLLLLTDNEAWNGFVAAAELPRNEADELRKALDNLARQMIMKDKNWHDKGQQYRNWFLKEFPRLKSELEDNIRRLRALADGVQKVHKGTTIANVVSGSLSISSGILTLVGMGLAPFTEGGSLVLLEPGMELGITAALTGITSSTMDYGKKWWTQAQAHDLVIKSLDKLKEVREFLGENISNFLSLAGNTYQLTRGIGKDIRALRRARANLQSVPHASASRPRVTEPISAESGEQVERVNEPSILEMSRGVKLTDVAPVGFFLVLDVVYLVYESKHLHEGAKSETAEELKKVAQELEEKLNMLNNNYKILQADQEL
Type: cell-based
Summary of the method: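 Readout: Tl+-triggered fluorescence, FLIPR, reflecting potassium flux through APOL1 pores after cells take up an AM-ester thallium indicator. Cells: HEK T-Rex stable clone G1 DC3.25, APOL1 G1 induced by tetracycline, seeded 26000 per well.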
In the case of CC(O)(CO)CNC(=O)[C@H]1C[C@H](c2c(-c3ccc(F)cc3)[nH]c3c(F)cc(F)cc32)C1 (mixture of isomers) [Compound 216], the IC50 is reported as > 1 µM.
For CC(C)C(CO)NC(=O)[C@H]1C[C@H](c2c(-c3ccc(F)cc3)[nH]c3c(F)cc(F)cc32)C1 (stereo partly drawn) [Compound 29], the IC50 was > 1 µM.
With O=C(N[C@@H]1CCC[C@@H]1O)[C@H]1C[C@H](c2c(-c3ccc(F)cc3)[nH]c3c(F)cc(F)cc32)C1 [Compound 179] the IC50 was > 1 µM.
With NC(=O)C(CO)NC(=O)[C@H]1C[C@H](c2c(-c3ccc(F)cc3)[nH]c3c(F)cc(F)cc32)C1 (stereo partly drawn) [Compound 32] the IC50 was < 0.25 µM.
For CS(=O)(=O)NC(=O)[C@H]1C[C@H](c2c(-c3ccc(F)cc3)[nH]c3c(F)cc(F)cc32)C1 [Compound 213], the IC50 was > 1 µM.
COC[C@@H]1CCN1C(=O)[C@H]1C[C@H](c2c(-c3ccc(F)cc3)[nH]c3c(F)cc(F)cc32)C1 [Compound 222] was tested, and the IC50 was 0.25 to 1 µM.
In the case of NC(=O)C1CC(c2c(-c3ccc(F)cc3)[nH]c3c(F)cc(F)cc23)C1 (stereo not drawn) [Compound 278, 3-[5,7-difluoro-2-(4-fluorophenyl)-1H-indol-3-yl]cyclobutanecarboxamide], the IC50 is reported as 0.25 to 1 µM.
O=C1CN(C(=O)[C@H]2C[C@H](c3c(-c4ccc(F)cc4)[nH]c4c(F)cc(F)cc43)C2)CCN1 [Compound 228] was tested, and the IC50 was > 1 µM.
In the case of Cn1ncc(CNC(=O)[C@H]2C[C@H](c3c(-c4ccc(F)cc4)[nH]c4c(F)cc(F)cc43)C2)n1 [Compound 198], the IC50 is reported as 0.25 to 1 µM.
Compound O=C1OCC[C@@H]1NC(=O)[C@H]1C[C@H](c2c(-c3ccc(F)cc3)[nH]c3c(F)cc(F)cc32)C1 [Compound 188] has an IC50 of 0.25 to 1 µM.
For O=C1N[C@H](CO)C[C@@H]1NC(=O)[C@H]1C[C@H](c2c(-c3ccc(F)cc3)[nH]c3c(F)cc(F)cc32)C1 [Compound 209], the IC50 was > 1 µM.
O=C([C@H]1C[C@H](c2c(-c3ccc(F)cc3)[nH]c3c(F)cc(F)cc32)C1)N1C[C@@H](O)[C@H](O)C1 [Compound 227] was tested, and the IC50 was > 1 µM.
C[C@@H](CO)NC(=O)[C@H]1C[C@H](c2c(-c3ccc(F)cc3)[nH]c3c(F)cc(F)cc32)C1 [Compound 200] was tested, and the IC50 was < 0.25 µM.
CC(CO)N(C)C(=O)[C@H]1C[C@H](c2c(-c3ccc(F)cc3)[nH]c3c(F)cc(F)cc32)C1 (mixture of isomers) [Compound 193] was tested, and the IC50 was 0.25 to 1 µM.
For CC(CO)(CO)NC(=O)[C@H]1C[C@H](c2c(-c3ccc(F)cc3)[nH]c3c(F)cc(F)cc32)C1 [Compound 186], the IC50 was < 0.25 µM.
In the case of O=C(N[C@@H]1CCC[C@H]1O)[C@H]1C[C@H](c2c(-c3ccc(F)cc3)[nH]c3c(F)cc(F)cc32)C1 [Compound 182], the IC50 is reported as > 1 µM.
For O=C(NC[C@@H](O)C(F)(F)F)[C@H]1C[C@H](c2c(-c3ccc(F)cc3)[nH]c3c(F)cc(F)cc32)C1 [Compound 177], the IC50 was 0.25 to 1 µM.
For C[C@]1(NC(=O)[C@H]2C[C@H](c3c(-c4ccc(F)cc4)[nH]c4c(F)cc(F)cc43)C2)C[C@@H](O)C1 [Compound 211], the IC50 was 0.25 to 1 µM.
Cc1cc(NC(=O)[C@H]2C[C@H](c3c(-c4ccc(F)cc4)[nH]c4c(F)cc(F)cc43)C2)no1 [Compound 17] showed an IC50 of 0.25 to 1 µM.
In the case of O=C(NC[C@H](O)CO)[C@H]1C[C@H](c2c(-c3ccc(F)cc3)[nH]c3c(F)cc(F)cc32)C1 [Compound 225], the IC50 is reported as > 1 µM.
O=C(N[C@H]1C[C@H](O)C1)[C@H]1C[C@H](c2c(-c3ccc(F)cc3)[nH]c3c(F)cc(F)cc32)C1 [Compound 20] was tested, and the IC50 was > 1 µM.
For O=C1CCC(NC(=O)[C@H]2C[C@H](c3c(-c4ccc(F)cc4)[nH]c4c(F)cc(F)cc43)C2)C(=O)N1 (stereo partly drawn) [Compound 26], the IC50 was 0.25 to 1 µM.
O=C([C@H]1C[C@H](c2c(-c3ccc(F)cc3)[nH]c3c(F)cc(F)cc32)C1)N1CC[C@H]1CO [Compound 206] showed an IC50 of 0.25 to 1 µM.
O=C(NC(CO)C1CC1)[C@H]1C[C@H](c2c(-c3ccc(F)cc3)[nH]c3c(F)cc(F)cc32)C1 (stereo partly drawn) [Compound 199] was tested, and the IC50 was 0.25 to 1 µM.
Work on CC1(CO)CCN1C(=O)[C@H]1C[C@H](c2c(-c3ccc(F)cc3)[nH]c3c(F)cc(F)cc32)C1 (mixture of isomers) [Compound 218] yielded an IC50 of 0.25 to 1 µM.
With O=C1NCCC1CNC(=O)[C@H]1C[C@H](c2c(-c3ccc(F)cc3)[nH]c3c(F)cc(F)cc32)C1 (stereo partly drawn) [Compound 208] the IC50 was > 1 µM.
CC1CC(NC(=O)[C@H]2C[C@H](c3c(-c4ccc(F)cc4)[nH]c4c(F)cc(F)cc43)C2)C(=O)O1 (stereo partly drawn) [Compound 207] was tested, and the IC50 was > 1 µM.
O=C(NC1CCOC1)[C@H]1C[C@H](c2c(-c3ccc(F)cc3)[nH]c3c(F)cc(F)cc32)C1 (stereo partly drawn) [Compound 15] was tested, and the IC50 was > 1 µM.
C[C@H](O)[C@@H](CO)NC(=O)[C@H]1C[C@H](c2c(-c3ccc(F)cc3)[nH]c3c(F)cc(F)cc32)C1 [Compound 16] was tested, and the IC50 was < 0.25 µM.
CC(C)(O)C(O)CNC(=O)[C@H]1C[C@H](c2c(-c3ccc(F)cc3)[nH]c3c(F)cc(F)cc32)C1 (stereo partly drawn) [Compound 215] was tested, and the IC50 was > 1 µM.
CC1(NC(=O)[C@H]2C[C@H](c3c(-c4ccc(F)cc4)[nH]c4c(F)cc(F)cc43)C2)CCNC1=O (mixture of isomers) [Compound 197] was tested, and the IC50 was 0.25 to 1 µM.
Work on O=C(N[C@H]1COC[C@@H]1O)[C@H]1C[C@H](c2c(-c3ccc(F)cc3)[nH]c3c(F)cc(F)cc32)C1 [Compound 184] yielded an IC50 of 0.25 to 1 µM.
For NC(=O)[C@@H](CO)NC(=O)[C@H]1C[C@H](c2c(-c3ccc(F)cc3)[nH]c3c(F)cc(F)cc32)C1 [Compound 221], the IC50 was < 0.25 µM.
O=C(NC1(CO)CC(F)(F)C1)[C@H]1C[C@H](c2c(-c3ccc(F)cc3)[nH]c3c(F)cc(F)cc32)C1 [Compound 202] showed an IC50 of 0.25 to 1 µM.
Compound O=C(NCc1nnco1)[C@H]1C[C@H](c2c(-c3ccc(F)cc3)[nH]c3c(F)cc(F)cc32)C1 [Compound 171] has an IC50 of 0.25 to 1 µM.
In the case of Cc1cc(CNC(=O)[C@H]2C[C@H](c3c(-c4ccc(F)cc4)[nH]c4c(F)cc(F)cc43)C2)on1 [Compound 37], the IC50 is reported as > 1 µM.
O=C(NC[C@@H](O)CO)[C@H]1C[C@H](c2c(-c3ccc(F)cc3)[nH]c3c(F)cc(F)cc32)C1 [Compound 224] was tested, and the IC50 was > 1 µM.
For N#CC(CO)NC(=O)[C@H]1C[C@H](c2c(-c3ccc(F)cc3)[nH]c3c(F)cc(F)cc32)C1 (stereo partly drawn) [Compound 201], the IC50 was < 0.25 µM.
Cn1cc(CNC(=O)[C@H]2C[C@H](c3c(-c4ccc(F)cc4)[nH]c4c(F)cc(F)cc43)C2)cn1 [Compound 38] was tested, and the IC50 was > 1 µM.
With COC1CC1NC(=O)[C@H]1C[C@H](c2c(-c3ccc(F)cc3)[nH]c3c(F)cc(F)cc32)C1 (stereo partly drawn) [Compound 18] the IC50 was > 1 µM.
O=C(NCC(O)CO)[C@H]1C[C@H](c2c(-c3ccc(F)cc3)[nH]c3c(F)cc(F)cc32)C1 (stereo partly drawn) [Compound 14] showed an IC50 of 0.25 to 1 µM.
For O=C([C@H]1C[C@H](c2c(-c3ccc(F)cc3)[nH]c3c(F)cc(F)cc32)C1)N1CCC[C@@H]1CO [Compound 192], the IC50 was > 1 µM.
In the case of CC(CO)NC(=O)[C@H]1C[C@H](c2c(-c3ccc(F)cc3)[nH]c3c(F)cc(F)cc32)C1 (mixture of isomers) [Compound 13], the IC50 is reported as < 0.25 µM.
O=C(NCC1(O)CC1)[C@H]1C[C@H](c2c(-c3ccc(F)cc3)[nH]c3c(F)cc(F)cc32)C1 [Compound 183] gave an IC50 of 0.25 to 1 µM.
With O=C([C@H]1C[C@H](c2c(-c3ccc(F)cc3)[nH]c3c(F)cc(F)cc32)C1)N1CC(CO)C1 [Compound 223] the IC50 was > 1 µM.
C[C@@H](O)CNC(=O)[C@H]1C[C@H](c2c(-c3ccc(F)cc3)[nH]c3c(F)cc(F)cc32)C1 [Compound 175] was tested, and the IC50 was 0.25 to 1 µM.
O=C(NCC1(O)COC1)[C@H]1C[C@H](c2c(-c3ccc(F)cc3)[nH]c3c(F)cc(F)cc32)C1 [Compound 185] was tested, and the IC50 was 0.25 to 1 µM.
Compound CS(=O)(=O)CCNC(=O)[C@H]1C[C@H](c2c(-c3ccc(F)cc3)[nH]c3c(F)cc(F)cc32)C1 [Compound 40] has an IC50 of 0.25 to 1 µM.
Cc1noc(CNC(=O)[C@H]2C[C@H](c3c(-c4ccc(F)cc4)[nH]c4c(F)cc(F)cc43)C2)n1 [Compound 173] was tested, and the IC50 was < 0.25 µM.
With CC[C@@H](CO)NC(=O)[C@H]1C[C@H](c2c(-c3ccc(F)cc3)[nH]c3c(F)cc(F)cc32)C1 [Compound 204] the IC50 was 0.25 to 1 µM.
In the case of O=C([C@H]1C[C@H](c2c(-c3ccc(F)cc3)[nH]c3c(F)cc(F)cc32)C1)N1CCOC[C@H]1CO [Compound 217], the IC50 is reported as > 1 µM.
COCCNC(=O)[C@H]1C[C@H](c2c(-c3ccc(F)cc3)[nH]c3c(F)cc(F)cc32)C1 [Compound 12] was tested, and the IC50 was > 1 µM.
For CC(C)CC(NC(=O)[C@H]1C[C@H](c2c(-c3ccc(F)cc3)[nH]c3c(F)cc(F)cc32)C1)C(N)=O (stereo partly drawn) [Compound 30], the IC50 was > 1 µM.
CC(C#N)(CO)NC(=O)[C@H]1C[C@H](c2c(-c3ccc(F)cc3)[nH]c3c(F)cc(F)cc32)C1 (stereo partly drawn) [Compound 191] gave an IC50 of 0.25 to 1 µM.
With C[C@@H](NC(=O)[C@H]1C[C@H](c2c(-c3ccc(F)cc3)[nH]c3c(F)cc(F)cc32)C1)C(N)=O [Compound 28] the IC50 was 0.25 to 1 µM.
In the case of CC[C@H](CO)NC(=O)[C@H]1C[C@H](c2c(-c3ccc(F)cc3)[nH]c3c(F)cc(F)cc32)C1 [Compound 203], the IC50 is reported as 0.25 to 1 µM.
In the case of O=C(NC[C@H](O)C(F)(F)F)[C@H]1C[C@H](c2c(-c3ccc(F)cc3)[nH]c3c(F)cc(F)cc32)C1 [Compound 176], the IC50 is reported as 0.25 to 1 µM.
In the case of O=C(NCC(F)(F)F)[C@H]1C[C@H](c2c(-c3ccc(F)cc3)[nH]c3c(F)cc(F)cc32)C1 [Compound 33], the IC50 is reported as 0.25 to 1 µM.
With O=C(N[C@H]1CC[C@@H]1O)[C@H]1C[C@H](c2c(-c3ccc(F)cc3)[nH]c3c(F)cc(F)cc32)C1 [Compound 178] the IC50 was > 1 µM.
With COC[C@@H]1CCN1C(=O)[C@H]1C[C@H](c2c(-c3ccc(F)cc3)[nH]c3c(F)cc(F)cc32)C1 [Compound 220] the IC50 was > 1 µM.
